{"source": "patent US6013660A", "about": "(priority 1996, dated 2000)", "key": {"[1]": {"tested_on": "M. tuberculosis Erdman", "assay": "M. tuberculosis Erdman growth in broth, various concentrations of inhibitor (Examples 5, 12)", "assay_type": "cell-based, Mycobacterium tuberculosis", "conditions": "for inhibitory effect on M. tuberculosis growth (comparison of known GS inhibitors): relative to L-methionine-S-sulfoximine"}, "[2]": {"tested_on": "M. tuberculosis Erdman", "assay": "Effect of L-glutamine on M. tuberculosis Erdman broth cultures with or without MS, Example 13", "assay_type": "cell-based, Mycobacterium tuberculosis", "conditions": "for effect of L-glutamine on M. tuberculosis growth without MS: no MS, FIG. 14; for effect of L-glutamine on M. tuberculosis growth with subinhibitory MS: subinhibitory (minimally inhibitory, FIG. 15) MS", "experimental": "L-glutamine (L-GLN) was added to MS-treated cultures of M. tuberculosis Erdman."}, "[3]": {"tested_on": "L. pneumophila Philadelphia 1", "conditions": "0.2, 2, 20, 200 μM MS; FIG. 11"}, "[4]": {"biological_target": "cell-associated glutamine synthetase (Mycobacterium tuberculosis, UniProt P9WN39)", "conditions": "20 μM MS; vs untreated; FIG. 22"}, "[5]": {"tested_on": "M. bovis BCG", "conditions": "FIG. 7; listed as MS"}, "[6]": {"tested_on": "M. phlei", "conditions": "0.2, 2, 20, 200 μM MS; FIG. 9"}, "[7]": {"biological_target": "T1, extracellular glutamine synthetase (Mycobacterium avium, UniProt A0ACG7XF78)", "conditions": "M. avium vs highly pathogenic strains"}, "[8]": {"tested_on": "M. tuberculosis H37Rv", "conditions": "0.2-200 μM MS; FIG. 5; similar to Erdman; listed as MS"}, "[9]": {"biological_target": "T2, extracellular glutamine synthetase (Mycobacterium tuberculosis, UniProt P9WN39)"}, "[10]": {"tested_on": "THP-1 cells", "assay": "Growth/toxicity in human monocyte cell line THP-1, Examples 14 and 15", "assay_type": "cell-based", "conditions": "for effect on growth rate of THP-1 cells: 200 μM MS, FIG. 19"}, "[11]": {"biological_target": "T2, extracellular glutamine synthetase", "assay": "biochemical", "conditions": "read-out: extracellular GS activity relative to untreated cultures"}, "[12]": {"tested_on": "M. smegmatis 1-2c", "conditions": "0.2, 2, 20, 200 μM MS; FIG. 10"}, "[13]": {"tested_on": "glutamine synthetase", "conditions": "Manning et al., 1969; cited from earlier work"}, "[14]": {"tested_on": "M. tuberculosis Erdman", "conditions": "200 μM MS"}, "[15]": {"tested_on": "M. tuberculosis, Erdman strain", "conditions": "2000 μM MS added at 0, 1, 2, 3, 4 weeks; FIG. 3"}, "[16]": {"tested_on": "E. coli DH5α", "conditions": "0.2, 2, 20, 200 μM MS; FIG. 12"}, "[17]": {"biological_target": "T1, extracellular glutamine synthetase", "assay": "biochemical", "conditions": "read-out: concentration of MS required to completely inhibit glutamine synthetase activity"}, "[18]": {"tested_on": "M. tuberculosis Erdman", "assay": "Control: effect of SDS on M. tuberculosis Erdman growth in broth culture (FIG. 24)", "assay_type": "cell-based, Mycobacterium tuberculosis", "conditions": "0.1% SDS", "experimental": "In the presence of 200 μM MS, M. tuberculosis growth was inhibited by almost 1 log by two days and by nearly 2 logs by five days."}}, "note": "“Also recorded” adds a separate entry of the source. Like-named read-outs stand apart in the source and are kept apart here.", "data": [{"compound": "CS(=N)(=O)CCC(N)C(=O)O", "note": "(racemic) [DL-methionine-SR-sulfoximine, reference compound]", "values": [{"measurement": "potency in inhibiting growth of M. tuberculosis relative to L-methionine-S-sulfoximine", "setting": "[1]; FIG. 13 vs FIG. 4", "result": "about 1/4"}, {"measurement": "inhibitory effect on M. tuberculosis growth (comparison of known GS inhibitors)", "setting": "[1]", "result": "significantly weaker inhibitory effect on the growth of M. tuberculosis"}]}, {"compound": "NC(=O)CC[C@H](N)C(=O)O", "note": "[L-glutamine]", "values": [{"measurement": "effect of L-glutamine on MS inhibition of M. tuberculosis", "setting": "[2]; inhibitory MS (2, 20, 200 μM), FIGS. 16-18", "result": "reverse the inhibitory effect of MS in a dose-dependent fashion; also recorded: reversed the inhibitory effect of MS"}, {"measurement": "effect of L-glutamine on M. tuberculosis growth without MS", "setting": "[2]", "result": "no or little influence on M. tuberculosis growth; also recorded: lack of effect"}, {"measurement": "effect of L-glutamine on M. tuberculosis growth without MS", "setting": "[2]; listed as L-GLN", "result": "no effect on the growth"}, {"measurement": "effect of L-glutamine on M. tuberculosis growth with subinhibitory MS", "setting": "[2]", "result": "no or little influence on M. tuberculosis growth; also recorded: lack of effect"}, {"measurement": "effect of L-glutamine on M. tuberculosis growth with subinhibitory MS", "setting": "[2]; listed as L-GLN", "result": "no effect on the growth"}]}, {"compound": "C[S@](=N)(=O)CC[C@H](N)C(=O)O", "note": "[L-methionine-S-sulfoximine]", "values": [{"measurement": "growth inhibition of L. pneumophila", "setting": "[3]", "result": "lack of effect"}, {"measurement": "cell-associated GS activity", "setting": "[4]", "result": "only slightly reduced"}, {"measurement": "growth inhibition of M. bovis BCG in broth", "setting": "[5]", "result": "strongly inhibits, in dose-dependent fashion"}, {"measurement": "growth inhibition of M. phlei", "setting": "[6]", "result": "lack of effect"}, {"measurement": "concentration required to inhibit GS activity compared with M. tuberculosis and M. bovis", "setting": "[7]", "result": "higher than that required to inhibit the glutamine synthetase activity of the highly pathogenic strains of M. tuberculosis and M. bovis"}, {"measurement": "growth inhibition of M. tuberculosis H37Rv in broth", "setting": "[8]", "result": "strongly inhibits, in dose-dependent fashion"}, {"measurement": "preferential inhibition of extracellular over cell-associated GS activity", "setting": "[9]; 20 μM MS, extracellular vs cell-associated", "result": "preferentially inhibits extracellular GS activity"}, {"measurement": "extracellular GS activity in M. tuberculosis cultures", "setting": "[9]; 0.2-200 μM MS from week 1, FIG. 20", "result": "marked decrease in extracellular GS activity"}, {"measurement": "increase in extracellular GS activity over 3 weeks (week 1 to week 4)", "setting": "[9]; 2-200 μM MS", "result": "little or no increase in extracellular GS activity"}, {"measurement": "growth inhibition of M. tuberculosis Erdman in broth", "setting": "[1]; 2 μM MS", "result": "strongly inhibited"}, {"measurement": "growth inhibition of M. tuberculosis Erdman in broth", "setting": "[1]; 20 μM MS", "result": "completely inhibited"}, {"measurement": "growth inhibition of M. tuberculosis Erdman in broth", "setting": "[1]; 200 μM MS", "result": "completely inhibited"}, {"measurement": "growth inhibition of M. tuberculosis Erdman in broth, overall", "setting": "[1]; 0.2, 2, 20, 200 μM, OD540 weekly, FIG. 4, listed as MS", "result": "strongly inhibits, in dose-dependent fashion; also recorded: inhibited the growth of M. tuberculosis Erdman in broth culture at all concentrations tested"}, {"measurement": "minimal effective concentration", "setting": "[1]; Mycobacterium tuberculosis, broth culture, FIGS. 4 and 5 (Erdman and H37Rv), read-out: MS concentrations as low as ... inhibited M. tuberculosis growth", "result": 0.2, "unit": "µM"}, {"measurement": "growth and viability of THP-1 cells", "setting": "[10]; 0 or 200 μM MS", "result": "grew at the same rate and maintained high viability"}, {"measurement": "effect on growth rate of THP-1 cells", "setting": "[10]", "result": "lack of effect"}, {"measurement": "effect on growth rate of THP-1 cells", "setting": "[10]; listed as MS", "result": "no influence on the growth rate of these cells"}, {"measurement": "toxicity against THP-1 cells", "setting": "[10]; up to 200 μM MS, listed as MS", "result": "no toxicity toward a human monocyte cell line; also recorded: no evidence of toxicity against THP-1 cells; also recorded: no evident toxicity for THP-1 cells up to a concentration of 200 μM"}, {"measurement": "activity at 20 µM", "setting": "[11]", "result": "< 25", "unit": "%"}, {"measurement": "growth inhibition of M. smegmatis", "setting": "[12]", "result": "lack of effect"}, {"measurement": "inhibition of glutamine synthetase", "setting": "[13]", "result": "inhibits glutamine synthetase"}, {"measurement": "Colony forming units of M. tuberculosis Erdman from infected THP-1 human monocytes", "setting": "[14]; Day 0", "result": "8.58 × 10^5 CFU"}, {"measurement": "Colony forming units of M. tuberculosis Erdman from infected THP-1 human monocytes", "setting": "[14]; Day 2", "result": "6.22 × 10^5 CFU"}, {"measurement": "Colony forming units of M. tuberculosis Erdman from infected THP-1 human monocytes", "setting": "[14]; Day 5a, lysed with sodium dodecyl sulfate", "result": "4.80 × 10^5 CFU"}, {"measurement": "Colony forming units of M. tuberculosis Erdman from infected THP-1 human monocytes", "setting": "[14]; Day 5b, lysed by vortexing", "result": "4.32 × 10^5 CFU"}, {"measurement": "inhibition of intracellular M. tuberculosis growth", "setting": "[14]; by five days", "result": "~2", "unit": "logs"}, {"measurement": "inhibition of intracellular M. tuberculosis growth", "setting": "[14]; by two days", "result": "~1", "unit": "log"}, {"measurement": "inhibition of M. tuberculosis growth in broth by time of addition", "setting": "[15]", "result": "inhibited the growth of M. tuberculosis in broth cultures when added up to 3 weeks following inoculation"}, {"measurement": "growth inhibition of E. coli", "setting": "[16]", "result": "lack of effect"}, {"measurement": "IC100", "setting": "[17]", "result": 200, "unit": "µM"}]}, {"compound": "CCCCCCCCCCCCOS(=O)(=O)[O-].[Na+]", "note": "[SDS, sodium dodecyl sulfate]", "values": [{"measurement": "influence of SDS on growth of M. tuberculosis in broth", "setting": "[18]", "result": "had no influence on growth of M. tuberculosis in broth culture"}]}, {"compound": "CP(=O)(O)CC[C@H](N)C(=O)O", "note": "[phosphinothricin, reference compound]", "values": [{"measurement": "inhibitory effect on M. tuberculosis growth (comparison of known GS inhibitors)", "setting": "[1]", "result": "only a very minor inhibitory effect on M. tuberculosis growth"}]}]}
